Values of other authors in US20080255097A1, “Methods for the Treatment of Substance Abuse and Dependence” (priority 2005, published 2008).

Tests used:
[1] = test system: GABAA receptor α4 subunit mRNA; details: withdrawal after long-term exposure
[2] = test system: GABAA receptor α4 subunit mRNA; details: exposure at the time of ethanol withdrawal
[3] = test system: GABAA receptors; details: 10 μM diazepam substituted for ethanol
[4] = overdose
[5] = test system: allopregnanolone; details: in vivo
[6] = not given; remark: listed apart in the source
[7] = test system: allopregnanolone; details: in vivo; remark: listed apart in the source

NCC1(CC(=O)O)CCCCC1 [Gabapentin]
half-life (in vivo): 5 to 7 h | metabolism (in vivo): not appreciably metabolized

CN1C(=O)CN=C(c2ccccc2)c2cc(Cl)ccc21 [diazepam]
amount of α4 subunit mRNA on withdrawal of the drug [1]: marked increase | effect on ethanol withdrawal-induced increase in abundance of α4 subunit mRNA [2]: antagonizes | effect on positive modulation of 3 μM flumazenil induced by ethanol withdrawal [3]: negated

N[C@@H]1C[C@H]1c1ccccc1 (racemic) [TRANYLCYPROMINE]
time in which the drug is excreted (after withdrawal): 24 h

CCCC(C)(COC(N)=O)COC(N)=O [MEPROBROMATE]
highest ingested amount with survival [4]: much as 40 g.

C=CCN1CC[C@]23c4c5ccc(O)c4O[C@H]2C(=O)CC[C@@]3(O)[C@H]1C5 [Naloxone, 17-allyl-4,5α-epoxy-3,14-dihydroxymorphinan-6-one]
half-life (in vivo): 1 to 1.67 h

CNCCC(Oc1ccc(C(F)(F)F)cc1)c1ccccc1 (stereo not drawn) [fluoxetine]
brain and cerebrospinal fluid content of allopregnanolone [5]: increase

C[C@]12C=CC(=O)N[C@@H]1CC[C@@H]1[C@@H]2CC[C@]2(C)[C@@H](C(=O)Nc3cc(C(F)(F)F)ccc3C(F)(F)F)CC[C@@H]12 [Dutasteride, (5α,17β)-N-{2,5 bis(trifluoromethyl)phenyl}-3-oxo-4-azaandrost-1-ene-17-carboxamide]
adverse effects compared with therapeutic dose of 0.5 mg ([6]; clinical study, daily doses of 5 mg, 60 subjects, 6 months): subjects for 6 months with no additional adverse effects to those | safety ([6]; volunteer studies, single doses up to 40 mg (80 times the therapeutic dose) for 7 days): without significant safety concerns. In a clinical study, daily doses

CN1CCC[C@H]1c1cccnc1 [nicotine]
half-life (in vivo): about 60 minutes | cerebrocortical concentrations of allopregnanolone and its precursors [7]: increase

CCN(C(C)=O)c1cccc(-c2ccnc3c(C#N)cnn23)c1 [zalpelon]
amount of α4 subunit mRNA on withdrawal of the drug [1]: marked increase

Cc1ccc(-c2nc3ccc(C)cn3c2CC(=O)N(C)C)cc1 [zolpidem]
amount of α4 subunit mRNA on withdrawal of the drug [1]: marked increase
